Results from US9382208B1, “Negative allosteric modulators of metabotropic glutamate receptor 2” (Vanderbilt University, priority 2015, dated 2016).

Molecular target: T1, rat mGlu2 (Rattus norvegicus, UniProt P31421)
T1 construct: expressed in transfected cells
Assay: mGlu2 Ca2+ flux assay
Type: cell-based
Conditions: for IC50: Gα15 HEK293 cells stably expressing rat mGlu2, glutamate EC80 addition, read-out: rat mGlu2 IC50; for remaining activity at 30 µM: amplitude of response in the presence of 30 μM test compound as percentage of maximal response to glutamate, read-out: rat mGlu2 Glu max (%)
Procedure: Gα15 HEK293 cells stably expressing rat mGlu2 were plated in black-walled, clear-bottomed, poly-D-lysine coated 384-well plates in 20 μL of assay medium (DMEM containing 10% dialyzed FBS, 20 mM HEPES, and 1 mM sodium pyruvate) at a density of 12K cells/well. The cells were grown overnight at 37° C. in the presence of 5% CO2. The next day, medium was removed and the cells incubated with 20 μL of 2.3 μM Fluo-4, AM prepared as a 2.3 mM stock in DMSO and mixed in a 1:1 ratio with 10% (w/v) pluronic acid F-127 and diluted in assay buffer (Hank's balanced salt solution, 20 mM HEPES, and 2.5 mM probenecid) for 45 minutes at 37° C. Dye was removed, 20 μL of assay buffer was added, and the plate was incubated for 5 minutes at room temperature.
Ca^2+ flux was measured using the Functional Drug Screening System (FDSS7000, Hamamatsu, Japan). After establishment of a fluorescence baseline for about 3 seconds, the compounds of the present invention were added to the cells, and the response in cells was measured. 2.3 minutes later an EC20 concentration of the mGlu2 receptor agonist glutamate was added to the cells, and the response of the cells was measured for 1.9 minutes; an EC80 concentration of agonist was added and readings taken for an additional 1.7 minutes. All test compounds were dissolved and diluted to a concentration of 10 mM in 100% DMSO. Compounds were then serially diluted 1:3 in DMSO into 10 point concentration response curves, transferred to daughter plates, and further diluted into assay buffer to a 2× stock. Calcium fluorescence measures were recorded as fold over basal fluorescence; raw data was then normalized to the maximal response to glutamate. Antagonism of the agonist response of the mGlu2 receptor in the present invention was observed as a decrease in response to nearly maximal concentrations of glutamate in the presence of compound compared to the response to glutamate in the absence of compound.
The raw data file containing all time points was used as the data source in the analysis template. This was saved by the FDSS as a tab-delimited text file. Data were normalized using a static ratio function (F/F0) for each measurement of the total 360 values per well divided by each well's initial value. Data were then reduced to peak amplitudes (Max−Initial Min) using a time range that starts approximately 3 seconds prior to the glutamate EC80 addition and continues for approximately 90 seconds. This is sufficient time to capture the peak amplitude of the cellular calcium response. Individual amplitudes were expressed as % ECMax by multiplying each amplitude by 100 and then dividing the product by the mean of the amplitudes derived from the glutamate ECMax-treated wells. IC50 values for test compounds were generated by fitting the normalized values versus the log of the test compound concentration (in mol/L) using a 4 parameter logistic equation where none of the parameters were fixed. Each of the three values collected at each concentration of test compound were weighted evenly.
For NAMs, potency (IC50) and maximum response (% Glu Max), i.e. the amplitude of response in the presence of 30 μM test compound as a percentage of the maximal response to glutamate, are reported. […] Compounds with no measurable activity are designated as “>30,000 nM” since the top concentration of compound tested in the assay is 30 μM.

T1 sequence (P31421 19-872): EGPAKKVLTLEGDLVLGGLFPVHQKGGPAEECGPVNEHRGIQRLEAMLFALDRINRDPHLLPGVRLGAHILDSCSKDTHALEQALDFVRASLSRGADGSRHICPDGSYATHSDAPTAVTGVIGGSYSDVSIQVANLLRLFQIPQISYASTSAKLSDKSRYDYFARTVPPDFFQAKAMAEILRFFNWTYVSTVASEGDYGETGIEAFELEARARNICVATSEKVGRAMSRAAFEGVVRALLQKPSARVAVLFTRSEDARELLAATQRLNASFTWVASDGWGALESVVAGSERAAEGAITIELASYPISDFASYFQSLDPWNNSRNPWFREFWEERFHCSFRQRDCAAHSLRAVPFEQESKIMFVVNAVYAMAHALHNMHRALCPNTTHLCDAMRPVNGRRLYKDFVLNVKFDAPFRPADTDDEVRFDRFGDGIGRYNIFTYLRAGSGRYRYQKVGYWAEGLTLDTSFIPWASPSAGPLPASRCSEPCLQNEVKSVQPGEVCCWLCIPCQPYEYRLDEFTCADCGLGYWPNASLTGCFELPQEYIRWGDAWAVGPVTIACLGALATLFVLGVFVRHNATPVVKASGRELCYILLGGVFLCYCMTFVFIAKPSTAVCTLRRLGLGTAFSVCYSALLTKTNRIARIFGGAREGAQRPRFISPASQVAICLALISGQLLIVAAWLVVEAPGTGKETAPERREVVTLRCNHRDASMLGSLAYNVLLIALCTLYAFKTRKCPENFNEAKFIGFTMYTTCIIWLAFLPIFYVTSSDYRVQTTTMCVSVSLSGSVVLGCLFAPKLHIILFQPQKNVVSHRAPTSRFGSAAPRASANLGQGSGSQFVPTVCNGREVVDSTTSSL

| Compound | IC50 | remaining activity at 30 µM |
| --- | --- | --- |
| NC(=O)c1cn(-c2ccc(F)cc2)c2ccc(-c3ccncc3)cc2c1=O [Compound 63, 1-(4-fluorophenyl)-4-oxo-6-(pyridin-4-yl)-1,4-dihydroquinoline-3-carboxamide] | 407 nM | 0.97% |
| C[C@@H]1CN(Cc2ccc3c(c2)c(=O)c(C(N)=O)cn3-c2ccc(F)cc2)C[C@H](C)O1 [Compound 64, 6-((cis-2,6-Dimethylmorpholino)methyl)-1-(4-fluorophenyl)-4-oxo-1,4-dihydroquinoline-3-carboxamide] | 222 ± 36 nM | 1.42 ± 0.51% |
| CN(Cc1ccc2c(c1)c(=O)c(C(N)=O)cn2-c1ccc(F)cc1)C1CCCC1 [Compound 69, 6-((cyclopentyl(methyl)amino)methyl)-1-(4-fluorophenyl)-4-oxo-1,4-dihydroquinoline-3-carboxamide] | 2190 nM | 1.39% |
| CN(Cc1ccc2c(c1)c(=O)c(C(N)=O)cn2-c1ccc(F)cc1)C1CC(F)(F)C1 [Compound 80, 6-(((3,3-difluorocyclobutyl)(methyl)amino)methyl)-1-(4-fluorophenyl)-4-oxo-1,4-dihydroquinoline-3-carboxamide] | 397 nM | 1.03% |
| NC(=O)c1cn(-c2ccc(F)cc2)c2ccc(N3CCCCC3c3cccnc3)cc2c1=O (stereo not drawn) [Compound 38, 1-(4-fluorophenyl)-4-oxo-6-(2-(pyridin-3-yl)piperidin-1-yl)-1,4-dihydroquinoline-3-carboxamide] | 900 nM | 1.68% |
| N#CC1CCN(Cc2ccc3c(c2)c(=O)c(C(N)=O)cn3-c2ccc(F)cc2)CC1 [Compound 75, 6-((4-cyanopiperidin-1-yl)methyl)-1-(4-fluorophenyl)-4-oxo-1,4-dihydroquinoline-3-carboxamide] | 735 nM | 1.02% |
| Cc1cccc(CCc2ccc3c(c2)c(=O)c(C(N)=O)cn3-c2ccc(F)cc2)c1 [Compound 7, 1-(4-fluorophenyl)-6-(3-methylphenethyl)-4-oxo-1,4-dihydroquinoline-3-carboxamide] | > 10000 nM | 42.1% |
| C[C@@H]1CN(Cc2ccc3c(c2)c(=O)c(C(N)=O)cn3-c2ccc(F)cc2)CCO1 [Compound 89, (R)-1-(4-fluorophenyl)-6-((2-methylmorpholino)methyl)-4-oxo-1,4-dihydroquinoline-3-carboxamide] | 1150 nM | 1.08% |
| NC(=O)c1cn(-c2ccc(F)cc2)c2ccc(OCc3ccncc3)cc2c1=O [Compound 25, 1-(4-fluorophenyl)-4-oxo-6-(pyridin-4-ylmethoxy)-1,4-dihydroquinoline-3-carboxamide] | 1230 nM | 0.97% |
| NC(=O)c1cn(-c2ccc(F)cc2)c2ccc(N3CCC(N4CCOCC4)C3)cc2c1=O (stereo not drawn) [Compound 50, 1-(4-fluorophenyl)-6-(3-morpholinopyrrolidin-1-yl)-4-oxo-1,4-dihydroquinoline-3-carboxamide] | 1320 nM | 1.08% |
| NC(=O)c1cn(-c2ccc(F)cc2)c2ccc(CN3CCSCC3)cc2c1=O [Compound 2, 1-(4-fluorophenyl)-4-oxo-6-(thiomorpholinomethyl)-1,4-dihydroquinoline-3-carboxamide] | 440 ± 97 nM | 1.52 ± 0.63% |
| CC1CCN(C)CCN1Cc1ccc2c(c1)c(=O)c(C(N)=O)cn2-c1ccc(F)cc1 (stereo not drawn) [Compound 68, 6-((4,7-dimethyl-1,4-diazepan-1-yl)methyl)-1-(4-fluorophenyl)-4-oxo-1,4-dihydroquinoline-3-carboxamide] | 4040 nM | 2.47% |
| NC(=O)c1cn(-c2ccc(F)cc2)c2ccc(COc3ccnc(C(F)(F)F)c3)cc2c1=O [Compound 34, 1-(4-fluorophenyl)-4-oxo-6-(((2-(trifluoromethyl)pyridin-4-yl)oxy)methyl)-1,4-dihydroquinoline-3-carboxamide] | 534 nM | 1.97% |
| COc1ccc(-n2cc(C(N)=O)c(=O)c3cc(CCc4cnc(C)nc4)ccc32)cc1 [Compound 15, 1-(4-methoxyphenyl)-6-(2-(2-methylpyrimidin-5-yl)ethyl)-4-oxo-1,4-dihydroquinoline-3-carboxamide] | 139 nM | 1.61% |
| Cc1ncc(OCc2ccc3c(c2)c(=O)c(C(N)=O)cn3-c2ccc(F)cc2)cn1 [Compound 35, 1-(4-fluorophenyl)-6-(((2-methylpyrimidin-5-yl)oxy)methyl)-4-oxo-1,4-dihydroquinoline-3-carboxamide] | 287 ± 51 nM | 1.71 ± 0.2% |
| NC(=O)c1cn(-c2ccc(F)cc2)c2ccc(COc3cccnc3F)cc2c1=O [Compound 39, 1-(4-fluorophenyl)-6-(((2-fluoropyridin-3-yl)oxy)methyl)-4-oxo-1,4-dihydroquinoline-3-carboxamide] | 883 nM | 0.83% |
| CN(Cc1ccc2c(c1)c(=O)c(C(N)=O)cn2-c1ccc(F)cc1)C1CC1 [Compound 70, 6-((cyclopropyl(methyl)amino)methyl)-1-(4-fluorophenyl)-4-oxo-1,4-dihydroquinoline-3-carboxamide] | 821 nM | 1.33% |
| NC(=O)c1cn(-c2ccc(F)cc2)c2ccc(CN3CCN(C4CC4)CC3)cc2c1=O [Compound 66, 6-((4-cyclopropylpiperazin-1-yl)methyl)-1-(4-fluorophenyl)-4-oxo-1,4-dihydroquinoline-3-carboxamide] | 1290 nM | 1.89% |
| NC(=O)c1cn(-c2ccc(F)cc2)c2ccc(CN3CCCCC3)cc2c1=O [Compound 4, 1-(4-fluorophenyl)-4-oxo-6-(piperidin-1-ylmethyl)-1,4-dihydroquinoline-3-carboxamide] | > 10000 nM | 53.8% |
| Cc1ncc(CCc2cc(F)c3c(c2)c(=O)c(C(N)=O)cn3-c2ccc(F)cc2)cn1 [Compound 49, 8-fluoro-1-(4-fluorophenyl)-6-(2-(2-methylpyrimidin-5-yl)ethyl)-4-oxo-1,4-dihydroquinoline-3-carboxamide] | 155 nM | 1.53% |
| NC(=O)c1cn(-c2ccc(F)cc2)c2ccc(NCCc3ccncc3)cc2c1=O [Compound 26, 1-(4-fluorophenyl)-4-oxo-6-((2-(pyridin-4-yl)ethyl)amino)-1,4-dihydroquinoline-3-carboxamide] | 444 nM | 1.91% |
| NC(=O)c1cn(-c2ccc(F)cc2)c2ccc(COc3ccc(C(F)(F)F)nc3)cc2c1=O [Compound 36, 1-(4-fluorophenyl)-4-oxo-6-(((6-(trifluoromethyl)pyridin-3-yl)oxy)methyl)-1,4-dihydroquinoline-3-carboxamide] | 1460 nM | 1.28% |
| NC(=O)c1cn(-c2ccc(F)cc2)c2ccc(Oc3ccc(F)nc3)cc2c1=O [Compound 58, 1-(4-fluorophenyl)-6-((6-fluoropyridin-3-yl)oxy)-4-oxo-1,4-dihydroquinoline-3-carboxamide] | 1360 nM | 1.18% |
| NC(=O)c1cn(-c2ccc(F)cc2)c2ccc(CN3CCC(C(F)(F)F)CC3)cc2c1=O [Compound 77, 1-(4-fluorophenyl)-4-oxo-6-((4-(trifluoromethyl)piperidin-1-yl)methyl)-1,4-dihydroquinoline-3-carboxamide] | 823 nM | 1.41% |
